Results from PMC5359555, “Mechanistic and structural basis of bioengineered bovine Cathelicidin-5 with optimized therapeutic activity” (Scientific Reports, 2017).
“And” between values parts separate entries of the source, which are not always exact repeats. Identical values can stand only once. Where a SMILES comes first, the peptide text is derived from it.

Tests used:
[1] = not given; remark: listed apart in the source
[2] = not given; remark: listed apart in the source
[3] = system: Plasmodium falciparum strain 3D7; test: microbe, parasite or virus in culture; type: cell-based; conditions: for antimalarial activity (in words): at 10 and 30 μM
Protocol: Plasmodium falciparum strain 3D7 was cultured in RPMI-1640 supplemented with 25 mg/l L-Glutamine; HEPES, NaHCO3; 50 mg/l Hypoxanthin; Gentamicien; 10% human serum; and RBCs at 3% hematocrit in an atmosphere of 5% CO2, 5% O2, and 90% N2 at 37°C as previously described. The Plasmodium lactate dehydrogenase (pLDH) assay was performed to measure the parasitic growth inhibition as described elsewhere[49] with BMAP-28 and its analogues treatment. In brief, malstat reagent was added to a 96-well plate (100 μL in each well). A Plasmodium infected RBC mixture of 20 μL in each well was mixed thoroughly using a plate shaker. And then 10 μL of each 1 mg/ml diaphorase and Nitroblue tetrozolium (NBT) were added to each well. The solution in the 96-well plate was mixed properly until a brown color appears and the absorbance was measured at 650 nm under a plate reader (PowerWaveHT, BioTek Instruments, USA). The hemolytic assay was carried out as described earlier. Briefly, RBCs prepared from fresh blood (Hematocrit ~5%) were incubated for 1 h at 37 °C after addition of test peptides. Relative hemoglobin concentration in supernatants after centrifugation at 2000× g for 5 min was monitored by measuring the absorbance at 540 nm by the plate reader (PowerWaveHT, BioTek Instruments, USA). As positive control, 100% hemolysis was taken from samples in which 2% Triton X-100 was added.

B16-F1 melanoma cells = test: MTT cell-viability assay, B16-F1 melanoma; type: cell-based, mouse
Protocol: (§1) The T-cell lymphoma (Jurkat) and B-cell lymphoma (Ramos) were cultured using RPMI-1640 medium supplemented with 10% fetal calf serum (FCS), 100 U ml^−1 penicillin and 100 μg ml^−1 streptomycin. An initial cell densities of 5 × 10^3 cells/well was uniformly maintained in a 96 well plate. The B16-F1 melanoma cells were grown in DMEM medium containing 10% FCS, 100 U ml^−1 penicillin and 100 μg ml^−1 streptomycin and 55 μM 2-mercaptoethanol. The cells were trypsinized and plated in a 96-well plate at a density of 5 × 10^3 cells/well. The cells were grown overnight at 37 °C using a 5% CO2 incubator. The cells were treated with different peptide concentration followed by cell proliferation assay. The MTT assay kit (Cayman chemicals, USA) was used to measure the cell viability at a peptide concentration varying from 2 to 15 μM (in triplicate). Fresh culture medium and cells in medium without peptide were considered as negative and positive controls for viability assay and was monitored at 24, 48 and 72 h. The Cayman MTT cell proliferation assay protocol was followed, and the absorbance were recorded at 570 nm using a microplate reader (PowerWaveHT, BioTek Instruments, USA).

B-cell lymphoma (Ramos) = type: cell-based; conditions: at a concentration higher than 30 μM
Protocol: as §1, with “The MTT assay kit (Cayman chemicals, USA) was used to measure the cell viability at a peptide concentration varying from 2 to 15 μM (in triplicate).” left out

[4] = system: Gram-positive and Gram-negative strains (E. coli BL21, Bacillus subtilis, Staphylococcus epidermis); type: cell-based; conditions: even at one order higher concentration than MIC ~2 μM
Protocol: The Escherichia coli strains BL21 and DH5α were obtained from Novagen and Takara Clontech, respectively. The Bacillus subtilis (3009) and Staphylococcus epidermis (12993) were purchased from NITE Biological Resource Center (NBRC, Japan). The bacterial growth procedures followed in this study were described elsewhere. The mid-log phase microbial growth (~4 × 10^7 cells/mL, 5 μL) was used for growth assay in a 96-well plate (5 replicates) at a variable peptide concentration incubated at 37 °C for 12–48 h.

Structure (SMILES) | antimalarial activity (in words) [3] | anticancer activity (in words) (B-cell lymphoma (Ramos)) | antimicrobial activity (in words) [4] | other results
CC[C@H](C)[C@H](NC(=O)[C@H](CCCNC(=N)N)NC(=O)[C@@H](NC(=O)[C@@H](NC(=O)[C@@H]1CCCN1C(=O)[C@@H](NC(=O)[C@@H](NC(=O)[C@@H](NC(=O)[C@@H]1CCCN1C(=O)CNC(=O)[C@H](Cc1ccc(O)cc1)NC(=O)[C@H](CCCCN)NC(=O)[C@H](CCCCN)NC(=O)[C@H](Cc1c[nH]c2ccccc12)NC(=O)[C@H](C)NC(=O)[C@H](CCCNC(=N)N)NC(=O)[C@H](CC(C)C)NC(=O)[C@@H](NC(=O)[C@H](CCCCN)NC(=O)[C@H](CCCNC(=N)N)NC(=O)CNC(=O)[C@H](CC(C)C)NC(=O)[C@H](CO)NC(=O)[C@H](CCCNC(=N)N)NC(=O)[C@H](CC(C)C)NC(=O)CNC(=O)CN)[C@@H](C)CC)[C@@H](C)CC)[C@@H](C)CC)C(C)C)[C@@H](C)CC)[C@@H](C)CC)C(=O)NCC(=O)O (H-GGLRSLGRKILRAWKKYGPIIVPIIRIG-OH) |  |  |  | β content: 14.3% and 21.5%; α content [1]: 11.1% and 11.9%; β-sheet content [2]: 7.1% and 25.3% and 7.5%
C[C@@H]1CC[C@H]2[C@@H](C)C(=O)O[C@@H]3O[C@@]4(C)CC[C@@H]1[C@]32OO4 [Art, artemisinin, reference compound] |  |  |  | inhibition at 5 µM ([3]; Plasmodium falciparum, 3D7, 5 μM, positive control, pLDH assay, read-out: growth inhibition (%) of P. falciparum): 100%
CC[C@H](C)[C@H](NC(=O)[C@H](CCCCN)NC(=O)[C@H](CCCNC(=N)N)NC(=O)CNC(=O)[C@H](CC(C)C)NC(=O)[C@H](CO)NC(=O)[C@H](CCCNC(=N)N)NC(=O)[C@H](CC(C)C)NC(=O)CNC(=O)CN)C(=O)N[C@@H](CC(C)C)C(=O)N[C@@H](CCCNC(=N)N)C(=O)N[C@@H](C)C(=O)N[C@@H](Cc1c[nH]c2ccccc12)C(=O)N[C@@H](CCCCN)C(=O)N[C@@H](CCCCN)C(=O)N[C@@H](Cc1ccc(O)cc1)C(=O)NCC(N)=O [BMAP-28_1–18] (H-GGLRSLGRKILRAWKKYG-NH2; N-terminus assumed) |  |  |  | concentration found to be active (B16-F1 melanoma cells): ~ 30 μM; anticancer activity (in words) (B16-F1 melanoma cells; 10 μM): fairly low anticancer activity
CC(C)C[C@H](NC(=O)CNC(=O)CN)C(=O)N[C@@H](CCCNC(=N)N)C(=O)N[C@@H](CO)C(=O)N[C@@H](CC(C)C)C(=O)NCC(=O)N[C@@H](CCCNC(=N)N)C(=O)N[C@@H](CCCCN)C(=O)N[C@@H](C)C(=O)N[C@@H](C)C(=O)N[C@@H](CCCNC(=N)N)C(=O)N[C@@H](C)C(=O)N[C@@H](Cc1c[nH]c2ccccc12)C(=O)N[C@@H](CCCCN)C(=O)N[C@@H](CCCCN)C(=O)N[C@@H](Cc1ccc(O)cc1)C(=O)NCC(N)=O [Syn2] (H-GGLRSLGRKAARAWKKYG-NH2; N-terminus assumed) | very low potentiality | loss-of activity | loss of activity | 
CC[C@H](C)[C@H](NC(=O)[C@H](CCCCN)NC(=O)[C@H](CCCNC(=N)N)NC(=O)CN)C(=O)N[C@@H](CC(C)C)C(=O)N[C@@H](CCCNC(=N)N)C(=O)N[C@@H](C)C(=O)N[C@@H](Cc1c[nH]c2ccccc12)C(=O)N[C@@H](CCCCN)C(=O)N[C@@H](CCCCN)C(=O)N[C@@H](Cc1ccc(O)cc1)C(=O)NCC(N)=O [Syn3] (H-GRKILRAWKKYG-NH2; N-terminus assumed) | very low potentiality | loss-of activity | loss of activity | 
